Measured values as given in paper PMC10199020 (Nature Communications, 2023).
Entries after “also recorded” stand apart in the source; their conditions may differ. Bridge positions count the residues as written; N and C are the ends. Square brackets hold non-standard residues; d marks the D form. Peptide text beside a SMILES is read from it. * marks the point of attachment. 5TAMRA = CN(C)c1ccc2c(c1)Oc1cc(N(C)C)ccc1C21OC(=O)c2cc(C(=O)*)ccc21; 2Nal = N[C@@H](Cc1ccc2ccccc2c1)C(=O)O; Pen = CC(C)(S)[C@H](N)C(=O)O; Aib = CC(C)(N)C(=O)O

What was measured:
[1] = target: T1, NL-IL23R with IL12Rβ1 (Homo sapiens, UniProt P42701+Q5VWK5); test: P630-TMR NanoBRET binding assay, NL-IL23R with IL12Rβ1; conditions: for BRET ratio, Specific (Mean) / BRET ratio, Non-specific (Mean): Fig. 2d, NL-IL23R with IL12Rβ1; for BRET ratio, Non-specific (Mean): with 10 μM P630; for BRET ratio with non-specific binding subtracted (Mean): Figure 2 sheet Panel f; for BRET ratio with non-specific binding subtracted (Mean) / % maximum BRET ratio / % of P630-TMR specific Bmax (Mean): NL-IL23R + IL12RB1; for % maximum BRET ratio / % of P630-TMR specific Bmax (Mean): Figure 2 sheet Panel g, Fig. 3d; for Mean NanoBRET binding signal (Figure 7 panel b): NL-IL23R +IL12RB1
T1 construct: expressed in transfected cells; host or cells: HEK293T (ATCC CRL-3216), transient transfection
Text: A standard curve was used to predict the expression level of NanoLuc labelled receptor in each experiment (Supplementary Fig. 1).
(§1) Fig. 2 Creation and characterisation of a fluorescent cyclic peptide probe for IL23R. […] Data are normally mean ± SEM from five independent experiments. Details on absolute number of data points included for each concentration are provided in the associated Source Data file. In each individual saturation experiment triplicate determinations were normally made for total binding and duplicate measurements were made for non-specific binding.
(§2) Media was removed from white 96-well microplates containing transfected cells and replaced with fluoroprobe in the presence or absence of antagonist in 50 μL Hanks Balanced Salt Solution (HBSS) with 1 mg/mL BSA (Merck). After a 1-hour incubation at 37 °C without CO2, 5 μL of HBSS containing 77 μM furimizine was added to each well (final concentration 7 μM), the plate incubated for 5-minutes and the BRET signal measured using a PheraStar FS plate reader (BMG Labtech; data acquisition software version 5.41; MARS analysis software version 3.32) with a 450 ± 30 nm and >550 nm long pass filters.
Ligand binding data were fitted with the equation:2 BRETratio=Bmax[A]/([A]+KD)+(BA+C). Where ‘Bmax’ is the maximum specific binding BRET signal, ‘[A]’ is fluorescent probe concentration, ‘B’ is the non-specific binding component’s slope and ‘C’ is the Y intercept.
(§3) Specific binding data was generated by subtracting the BRET values gained in the presence of an excess of unlabelled probe from the BRET ratios gained in the absence of unlabelled probe. Specific binding data were fit using the equation:3 Y=Bmax[B]/(B+KD) where ‘Bmax’ is the maximum specific binding signal of the curve and ‘[B]’ is the concentration of fluorescent probe.

[2] = target: T2, NL-IL12Rβ1 (Homo sapiens, UniProt P42701); test: P630-TMR NanoBRET binding assay, NL-IL12Rβ1 alone; conditions: for Specific binding BRET ratio (Mean): Fig. 2h, NL-IL12RB1
T2 construct: expressed in transfected cells; host or cells: HEK293T, transient transfection
Text: as §1
(§4) Finally, we utilised a NanoBiT BRET system in which a complemented luciferase with fragments bound to both receptor subunits (Fig. 3) can be used as a BRET donor to measure interactions with binary receptor complexes.
as §2, §3

[3] = target: HiBit-IL23R and LgBit-IL12Rβ1 (Homo sapiens, UniProt Q5VWK5); test: NanoBiT BRET binding assay; set-up: expressed in transfected cells; host or cells: HEK293T, transient transfection; conditions: for BRET ratio, Non-specific (Mean) / BRET ratio, Specific (Mean): Fig. 3b, NanoBiT complemented receptors; for % of P630-TMR specific Bmax (Mean): Fig. 3d, HiBit-IL23R + LgBit-IL12RB1
Text: as §4
Data in b are mean ± SEM from three independent experiments. In each individual experiment, triplicate determinations were made for total binding and duplicate or triplicate determinations made for non-specific binding. Data in c are the mean values obtained in five independent experiments, each conducted with six replicates. […] Data in d are the mean ± SEM from five (NL-IL23R and NL-23R + IL12Rβ1) or three (HiBit-IL23R + LgBit-IL12Rβ1) independent experiments. Source data are provided as a Source Data file.
as §2

Sequence of HiBit-IL23R and LgBit-IL12Rβ1 (Q5VWK5 24-629, other chains not shown): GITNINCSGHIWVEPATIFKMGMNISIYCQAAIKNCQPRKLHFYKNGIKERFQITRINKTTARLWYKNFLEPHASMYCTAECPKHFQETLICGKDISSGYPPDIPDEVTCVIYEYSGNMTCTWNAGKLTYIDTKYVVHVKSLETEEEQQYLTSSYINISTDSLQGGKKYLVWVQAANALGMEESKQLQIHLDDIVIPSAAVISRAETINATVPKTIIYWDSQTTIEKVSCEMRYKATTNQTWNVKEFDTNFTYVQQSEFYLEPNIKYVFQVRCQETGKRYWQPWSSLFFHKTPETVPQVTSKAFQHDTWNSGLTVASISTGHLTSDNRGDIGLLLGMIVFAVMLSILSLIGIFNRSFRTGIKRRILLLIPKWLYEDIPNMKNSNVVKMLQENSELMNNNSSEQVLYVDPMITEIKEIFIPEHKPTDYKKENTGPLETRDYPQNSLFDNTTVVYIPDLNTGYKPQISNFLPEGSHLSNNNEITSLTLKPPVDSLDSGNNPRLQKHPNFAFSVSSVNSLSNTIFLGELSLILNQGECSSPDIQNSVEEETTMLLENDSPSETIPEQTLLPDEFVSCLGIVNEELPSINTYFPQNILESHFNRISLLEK
T1 sequence (Q5VWK5 24-629, other chains not shown): as above

COc1ccc(C[C@H](NC(=O)[C@H]2NC(=O)[C@H](CCC(N)=O)NC(=O)[C@H](Cc3c[nH]c4ccccc34)NC(=O)[C@H]([C@@H](C)O)NC(=O)[C@H](CC(N)=O)NC(=O)[C@@H](NC(C)=O)C(C)(C)SSC2(C)C)C(=O)N[C@@H](Cc2ccc3ccccc3c2)C(=O)NC(C)(C)C(=O)N[C@@H](CCC(=O)O)C(=O)N[C@@H](CC(N)=O)C(=O)N[C@@H](CC(N)=O)C(=O)N[C@@H](CCCCNC(=O)c2ccc3c(c2)C(=O)OC32c3ccc(N(C)C)cc3Oc3cc(N(C)C)ccc32)C(N)=O)cc1 [P630-TMR] (Ac-[Pen]NTWQ[Pen]Y(Me)[2Nal][Aib]ENNK(5TAMRA)-NH2; disulfide 1-6) was tested, and the “BRET ratio, Specific (Mean)” value ([1]; P630-TMR 0.457247 nM) was 0.2512, the “BRET ratio, Specific (Mean)” value ([1]; P630-TMR 1.37174 nM) was 0.271 and the “BRET ratio, Specific (Mean)” value ([1]; P630-TMR 4.11523 nM) was 0.315. The “BRET ratio, Specific (Mean)” value ([1]; P630-TMR 12.3457 nM) was 0.4472, the “BRET ratio, Specific (Mean)” value ([1]; P630-TMR 37.037 nM) was 0.6615 and the “BRET ratio, Specific (Mean)” value ([1]; P630-TMR 111.111 nM) was 1.003. The “BRET ratio, Specific (Mean)” value ([1]; P630-TMR 1000 nM) was 1.323, the “BRET ratio, Specific (Mean)” value ([1]; P630-TMR 3000 nM) was 1.6368 and the “BRET ratio, Non-specific (Mean)” value ([1]; P630-TMR 0.457247 nM) was 0.2426. For the same compound, the “BRET ratio, Non-specific (Mean)” value ([1]; P630-TMR 1.37174 nM) was 0.2389, the “BRET ratio, Non-specific (Mean)” value ([1]; P630-TMR 4.11523 nM) was 0.241 and the “BRET ratio, Non-specific (Mean)” value ([1]; P630-TMR 12.3457 nM) was 0.2439. The “BRET ratio, Non-specific (Mean)” value ([1]; P630-TMR 37.037 nM) was 0.2477, the “BRET ratio, Non-specific (Mean)” value ([1]; P630-TMR 111.111 nM) was 0.2531 and the “BRET ratio, Non-specific (Mean)” value ([1]; P630-TMR 1000 nM) was 0.3233. The “BRET ratio, Non-specific (Mean)” value ([1]; P630-TMR 3000 nM) was 0.4914, the “BRET ratio, Non-specific (Mean)” value ([1]; P630-TMR […]) was 0.2709 and the “BRET ratio with non-specific binding subtracted (Mean)” value ([1]; P630-TMR 0.457247 nM) was 0.01279. The “BRET ratio with non-specific binding subtracted (Mean)” value ([1]; P630-TMR 1.37174 nM) was 0.03163, the “BRET ratio with non-specific binding subtracted (Mean)” value ([1]; P630-TMR 4.11523 nM) was 0.07414 and the “BRET ratio with non-specific binding subtracted (Mean)” value ([1]; P630-TMR 12.3457 nM) was 0.203. For the same compound, the “BRET ratio with non-specific binding subtracted (Mean)” value ([1]; P630-TMR 37.037 nM) was 0.4147, the “BRET ratio with non-specific binding subtracted (Mean)” value ([1]; P630-TMR 111.111 nM) was 0.7498 and the “BRET ratio with non-specific binding subtracted (Mean)” value ([1]; P630-TMR 1000 nM) was 1.0032. For the same compound, the “BRET ratio with non-specific binding subtracted (Mean)” value ([1]; P630-TMR 3000 nM) was 1.107, the “% maximum BRET ratio / % of P630-TMR specific Bmax (Mean)” value (from here on “% maximum BRET ratio / %”) ([1]; P630-TMR 0.457247 nM) was 1.58% and the “% maximum BRET ratio / %” value ([1]; P630-TMR 1.37174 nM) was 3.558%. The “% maximum BRET ratio / %” value ([1]; P630-TMR 4.11523 nM) was 8.249%, the “% maximum BRET ratio / %” value ([1]; P630-TMR 12.3457 nM) was 22.4565% and the “% maximum BRET ratio / %” value ([1]; P630-TMR 37.037 nM) was 45.1459%. For the same compound, the “% maximum BRET ratio / %” value ([1]; P630-TMR 111.111 nM) was 80.9844%, the “% maximum BRET ratio / %” value ([1]; P630-TMR 1000 nM) was 106.516% and the “% maximum BRET ratio / %” value ([1]; P630-TMR 3000 nM) was 100.024%. The “Mean NanoBRET binding signal (Figure 7 panel b)” value (“Mean NanoBRET binding signal” for short) ([1]; [P630-TMR] 0.8 nM) was -0.0001896, the “Mean NanoBRET binding signal” value ([1]; [P630-TMR] 4 nM) was 0.1611 and the “Mean NanoBRET binding signal” value ([1]; [P630-TMR] 20 nM) was 0.6859. For the same compound, the “Mean NanoBRET binding signal” value ([1]; [P630-TMR] 100 nM) was 1.691, the “Mean NanoBRET binding signal” value ([1]; [P630-TMR] 500 nM) was 2.556 and the “Mean NanoBRET binding signal” value ([1]; [P630-TMR] 2000 nM) was 2.7354. For the same compound, the Kd ([1]; NL-IL23R and IL12Rβ1, mean ± SEM) was 51.1 ± 7.3 nM, the “Specific binding BRET ratio (Mean)” value ([2]; P630-TMR 1.37174 nM) was -0.001356 and the “Specific binding BRET ratio (Mean)” value ([2]; P630-TMR 4.11523 nM) was 0.00137. For the same compound, the “Specific binding BRET ratio (Mean)” value ([2]; P630-TMR 12.3457 nM) was 0.0001891, the “Specific binding BRET ratio (Mean)” value ([2]; P630-TMR 37.037 nM) was 0.00136 and the “Specific binding BRET ratio (Mean)” value ([2]; P630-TMR 111.111 nM) was 0.002083. For the same compound, the “Specific binding BRET ratio (Mean)” value ([2]; P630-TMR 1000 nM) was 0.003104, the “Specific binding BRET ratio (Mean)” value ([2]; P630-TMR 3000 nM) was 0.002137 and the “Binding to cells expressing NL-IL12Rβ1 in isolation” value ([2]; absence of IL23R) was “no specific binding; also recorded: Did not bind”. The “BRET ratio, Non-specific (Mean)” value ([3]; P630-TMR 1.37174 nM) was 0.09875, the “BRET ratio, Specific (Mean)” value ([3]; P630-TMR 1.37174 nM) was 0.105 and the “BRET ratio, Non-specific (Mean)” value ([3]; P630-TMR 4.11523 nM) was 0.09641. For the same compound, the “BRET ratio, Specific (Mean)” value ([3]; P630-TMR 4.11523 nM) was 0.1138, the “BRET ratio, Non-specific (Mean)” value ([3]; P630-TMR 12.3457 nM) was 0.09986 and the “BRET ratio, Specific (Mean)” value ([3]; P630-TMR 12.3457 nM) was 0.141. For the same compound, the “BRET ratio, Non-specific (Mean)” value ([3]; P630-TMR 37.037 nM) was 0.1012, the “BRET ratio, Specific (Mean)” value ([3]; P630-TMR 37.037 nM) was 0.1913 and the “BRET ratio, Non-specific (Mean)” value ([3]; P630-TMR 111.111 nM) was 0.1006. For the same compound, the “BRET ratio, Specific (Mean)” value ([3]; P630-TMR 111.111 nM) was 0.2562, the “BRET ratio, Non-specific (Mean)” value ([3]; P630-TMR 1000 nM) was 0.1066 and the “BRET ratio, Specific (Mean)” value ([3]; P630-TMR 1000 nM) was 0.3269. For the same compound, the “BRET ratio, Non-specific (Mean)” value ([3]; P630-TMR 3000 nM) was 0.1175, the “BRET ratio, Specific (Mean)” value ([3]; P630-TMR 3000 nM) was 0.3365 and the “% of P630-TMR specific Bmax (Mean)” value ([3]; P630-TMR 1.37174 nM) was 2.813%. The “% of P630-TMR specific Bmax (Mean)” value ([3]; P630-TMR 4.11523 nM) was 8.07%, the “% of P630-TMR specific Bmax (Mean)” value ([3]; P630-TMR 12.3457 nM) was 19.2912% and the “% of P630-TMR specific Bmax (Mean)” value ([3]; P630-TMR 37.037 nM) was 41.1077%. The “% of P630-TMR specific Bmax (Mean)” value ([3]; P630-TMR 111.111 nM) was 71.2465%, the “% of P630-TMR specific Bmax (Mean)” value ([3]; P630-TMR 1000 nM) was 99.3007% and the “% of P630-TMR specific Bmax (Mean)” value ([3]; P630-TMR 3000 nM) was 100%. For the same compound, the Kd ([3]; HiBit-IL23R and LgBit-IL12Rβ1, mean ± SEM) was 53.5 ± 4.4 nM.
